# Columns and labels:
# [1] = biological target: T1, Purified recombinant NBD1 (Homo sapiens, UniProt P13569); assay: Aggregation analysis using differential static light scattering (DSLS): thermal stability of NBD1; assay type: binding; conditions: NBD1 0.2 mg/ml; Tagg of compound well minus average Tagg of DMSO control wells
# T1 construct: Purified recombinant NBD1 was produced using previously described methods; made in house
# Method in brief: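 ΔTagg is compound-well aggregation temperature minus the DMSO-control mean, each Tagg being the inflection point of light scattering measured by DSLS during a 1 °C/min ramp up to 70 °C. The protein was purified NBD1 (0.2 mg/ml) in pH 7.6 buffer containing 2 mM ATP, 5 mM MgCl2 and 1% glycerol.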
# [2] = test system: Primary human bronchial epithelial cells from a ΔF508 homozygous CF donor (CF-HBE cells); assay: TECC24 recording of CFTR-mediated transepithelial chloride transport, AUC fold over benchmark VX-809 @10 μM; assay type: cell-based; conditions: 48 hours incubation, AUC of forskolin-stimulated IEQ
# Method in brief: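 Values are the forskolin-to-inhibitor-172 AUC of equivalent Cl− current, derived from transepithelial voltage and resistance, divided by the VX-809 AUC and binned as A <3, B 3–6, C 6–20. Cells were pre-incubated with compound for 48 h at 36.5 °C; the bath (pH 7.4) received benzamil 10 μM, forskolin 10 μM, then CFTRinh-172 20 μM.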
# T1 sequence (P13569 423-646 limits assumed): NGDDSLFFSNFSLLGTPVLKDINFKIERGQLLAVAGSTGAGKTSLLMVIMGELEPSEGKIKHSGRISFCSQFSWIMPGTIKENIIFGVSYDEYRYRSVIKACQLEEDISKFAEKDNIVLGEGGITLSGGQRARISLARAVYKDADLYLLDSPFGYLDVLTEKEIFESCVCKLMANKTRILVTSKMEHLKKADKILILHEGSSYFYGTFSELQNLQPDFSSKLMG
SMILES,DSLS (ΔTagg) [1],TECC (test agent AUC divided by VX-809 AUC) [2]
"CN1CC(C)(C)CCCCC(C)(c2ccccc2)c2cnc([nH]2)-c2cc(ccc2F)Oc2c(F)cc3[nH]ccc3c2CCC1=O (centres unmarked) [Compound 62, 24,30-Difluoro-6,11,11,13-tetramethyl-6-phenyl-26-oxa-3,13,21,32-tetrazapentacyclo[25.3.1.12,5.017,25.018,22]dotriaconta-1(31),2,4,17,19,22,24,27,29-nonaen-14-one]",A (an ΔTagg value less than or equal to 5 °C is marked “A”),A (a TECC value less than 3 is marked “A”)
"CN1CC(C)(C)CCCC(C)(c2ccc(CC(=O)O)cc2)c2cnc([nH]2)-c2cc(ccc2F)Oc2c(F)cc3[nH]ccc3c2CCC1=O (centres unmarked) [Compound 63, 2-[4-(23,29-Difluoro-6,10,10,12-tetramethyl-13-oxo-25-oxa-3,12,20,31-tetrazapentacyclo[24.3.1.12,5.016,24.017,21]hentriaconta-1(30),2,4,16,18,21,23,26,28-nonaen-6-yl)phenyl]acetic acid]",B (a value above 5 °C and less than or equal to 10 °C is marked “B”),A (a TECC value less than 3 is marked “A”)
"CN1CCCCC(C)(c2cccc(CCC(=O)O)c2)c2cnc([nH]2)-c2cc(ccc2F)Oc2c(F)cc3[nH]ccc3c2CC1=O (centres unmarked) [Compound 68, 3-[3-(21,27-Difluoro-6,11-dimethyl-12-oxo-23-oxa-3,11,18,29-tetrazapentacyclo[22.3.1.12,5.014,22.015,19]nonacosa-1(28),2,4,14,16,19,21,24,26-nonaen-6-yl)phenyl]propanoic acid]",B (a value above 5 °C and less than or equal to 10 °C is marked “B”),A (a TECC value less than 3 is marked “A”)
"CN1CC(C)(C)CCCC(C)(c2cccc(CCC(=O)O)c2)c2cnc([nH]2)-c2cc(ccc2F)Oc2c(F)c(F)c3[nH]ccc3c2CCC1=O (centres unmarked) [Compound 70, 3-[3-(22,23,29-Trifluoro-6,10,10,12-tetramethyl-13-oxo-25-oxa-3,12,20,31-tetrazapentacyclo[24.3.1.12,5.016,24.017,21]hentriaconta-1(30),2,4,16,18,21,23,26,28-nonaen-6-yl)phenyl]propanoic acid]",C (a value greater than 10 °C and less than or equal to 25 °C is marked “C”),A (a TECC value less than 3 is marked “A”)
"CN1CC(C)(C)CCCC(C)(c2ccccc2)c2cnc([nH]2)-c2cc(ccc2F)Oc2c(F)c(F)c3[nH]ccc3c2CCC1=O (centres unmarked) [Compound 71, 22,23,29-Trifluoro-6,10,10,12-tetramethyl-6-phenyl-25-oxa-3,12,20,31-tetrazapentacyclo[24.3.1.12,5.016,24.017,21]hentriaconta-1(30),2,4,16,18,21,23,26,28-nonaen-13-one]",A (an ΔTagg value less than or equal to 5 °C is marked “A”),A (a TECC value less than 3 is marked “A”)
"CN1Cc2c(c(F)cc3[nH]ccc23)Oc2ccc(F)c(c2)-c2ncc([nH]2)C(C)(c2cccc(CCC(=O)O)c2)CCCOCC(C)(C)C1=O (centres unmarked) [Compound 73, 3-[3-(23,29-difluoro-6,12,12,14-tetramethyl-13-oxo-10,25-dioxa-3,14,20,31-tetrazapentacyclo[24.3.1.12,5.016,24.017,21]hentriaconta-1(30),2,4,16,18,21,23,26,28-nonaen-6-yl)phenyl]propanoic acid]",C (a value greater than 10 °C and less than or equal to 25 °C is marked “C”),B (a value between 3 and 6 is marked “B”)
"CN1Cc2c(c(F)cc3[nH]ccc23)Oc2ccc(F)c(c2)-c2ncc([nH]2)C(C)(c2ccccc2)CCCOCC(C)(C)C1=O (centres unmarked) [Compound 74, 23,29-difluoro-6,12,12,14-tetramethyl-6-phenyl-10,25-dioxa-3,14,20,31-tetrazapentacyclo[24.3.1.12,5.016,24.017,21]hentriaconta-1(30),2,4,16,18,21,23,26,28-nonaen-13-one]",A (an ΔTagg value less than or equal to 5 °C is marked “A”),A (a TECC value less than 3 is marked “A”)
"CC1(c2cccc(CCC(=O)O)c2F)CCCCOC(=O)NCCc2c(c(F)cc3[nH]ccc23)Oc2ccc(F)c(c2)-c2ncc1[nH]2 (centres unmarked) [Compound 80, 3-[3-(23,29-Difluoro-6-methyl-12-oxo-11,25-dioxa-3,13,20,31-tetrazapentacyclo[24.3.1.12,5.016,24.017,21]hentriaconta-1(30),2,4,16,18,21,23,26,28-nonaen-6-yl)-2-fluoro-phenyl]propanoic acid]",C (a value greater than 10 °C and less than or equal to 25 °C is marked “C”),B (a value between 3 and 6 is marked “B”)
"CC1(c2cccc(CCC(=O)O)c2)CNC(=O)OCCCCc2c(c(F)cc3[nH]ccc23)Oc2ccc(F)c(c2)-c2ncc1[nH]2 (centres unmarked) [Compound 83, 3-[3-(22,28-Difluoro-6-methyl-9-oxo-10,24-dioxa-3,8,19,30-tetrazapentacyclo[23.3.1.12,5.015,23.016,20]triaconta-1(29),2,4,15,17,20,22,25,27-nonaen-6-yl)phenyl]propanoic acid]",A (an ΔTagg value less than or equal to 5 °C is marked “A”),A (a TECC value less than 3 is marked “A”)
"CN1CCCc2c(c(F)cc3[nH]ccc23)Oc2ccc(F)c(c2)-c2ncc([nH]2)C(C)(c2cccc(CCC(=O)O)c2)CCCOC1=O (centres unmarked) [Compound 84, 3-[3-(23,29-Difluoro-6,12-dimethyl-11-oxo-10,25-dioxa-3,12,20,31-tetrazapentacyclo[24.3.1.12,5.016,24.017,21]hentriaconta-1(30),2,4,16(24),17(21),18,22,26,28-nonaen-6-yl)phenyl]propanoic acid]",C (a value greater than 10 °C and less than or equal to 25 °C is marked “C”),B (a value between 3 and 6 is marked “B”)
"O=C(O)CCc1cccc(C2CCCCCNC(=O)OCc3c(c(F)cc4[nH]ccc34)Oc3ccc(F)c(c3)-c3ncc2[nH]3)c1F (centres unmarked) [Compound 85, 3-[3-(23,29-Difluoro-13-oxo-14,25-dioxa-3,12,20,31-tetrazapentacyclo[24.3.1.12,5.016,24.017,21]hentriaconta-1(30),2,4,16,18,21,23,26,28-nonaen-6-yl)-2-fluoro-phenyl]propanoic acid]",C (a value greater than 10 °C and less than or equal to 25 °C is marked “C”),B (a value between 3 and 6 is marked “B”)
"CC1(c2cccc(CCC(=O)O)c2)CCCCNC(=O)OCCc2c(c(F)cc3[nH]ccc23)Oc2ccc(F)c(c2)-c2ncc1[nH]2 (centres unmarked) [Compound 86, 3-[3-(23,29-Difluoro-6-methyl-12-oxo-13,25-dioxa-3,11,20,31-tetrazapentacyclo[24.3.1.12,5.016,24.017,21]hentriaconta-1(30),2,4,16(24),17(21),18,22,26,28-nonaen-6-yl)phenyl]propanoic acid]",C (a value greater than 10 °C and less than or equal to 25 °C is marked “C”),C (a value between 6 and 20 is marked “C”)
"CC1CCC(C)(c2cccc(CCC(=O)O)c2)c2cnc([nH]2)-c2cc(ccc2F)Oc2c(F)cc3[nH]ccc3c2CCNC(=O)OC1 (centres unmarked) [Compound 87, 3-[3-(23,29-Difluoro-6,9-dimethyl-12-oxo-11,25-dioxa-3,13,20,31-tetrazapentacyclo[24.3.1.12,5.016,24.017,21]hentriaconta-1(30),2,4,16(24),17(21),18,22,26,28-nonaen-6-yl)phenyl]propanoic acid]",C (a value greater than 10 °C and less than or equal to 25 °C is marked “C”),B (a value between 3 and 6 is marked “B”)
"CC1(C)CCCCC(C)(c2cccc(CCC(=O)O)c2)c2cnc([nH]2)-c2cc(ccc2F)Oc2c(F)cc3[nH]ccc3c2COC(=O)N1 (centres unmarked) [Compound 88, 3-[3-(23,29-Difluoro-6,11,11-trimethyl-13-oxo-14,25-dioxa-3,12,20,31-tetrazapentacyclo[24.3.1.12,5.016,24.017,21]hentriaconta-1(30),2,4,16,18,21,23,26,28-nonaen-6-yl)phenyl]propanoic acid]",C (a value greater than 10 °C and less than or equal to 25 °C is marked “C”),B (a value between 3 and 6 is marked “B”)
"CC1(C)CCCC(C)(c2cccc(CCC(=O)O)c2)c2cnc([nH]2)-c2cc(ccc2F)Oc2c(F)cc3[nH]ccc3c2CNC(=O)OC1 (centres unmarked) [Compound 89, 3-[3-(23,29-Difluoro-6,10,10-trimethyl-13-oxo-12,25-dioxa-3,14,20,31-tetrazapentacyclo[24.3.1.12,5.016,24.017,21]hentriaconta-1(30),2,4,16,18,21,23,26,28-nonaen-6-yl)phenyl]propanoic acid]",C (a value greater than 10 °C and less than or equal to 25 °C is marked “C”),B (a value between 3 and 6 is marked “B”)
"CC1(C)CCCC(C)(c2cccc(CCC(=O)O)c2)c2nnc([nH]2)-c2cc(ccc2F)Oc2c(F)cc3[nH]ccc3c2COC(=O)NC1 (centres unmarked) [Compound 90, 3-[3-(23,29-Difluoro-6,10,10-trimethyl-13-oxo-14,25-dioxa-3,4,12,20,31-pentazapentacyclo[24.3.1.12,5.016,24.017,21]hentriaconta-1(30),2,4,16(24),17(21),18,22,26,28-nonaen-6-yl)phenyl]propanoic acid]",C (a value greater than 10 °C and less than or equal to 25 °C is marked “C”),B (a value between 3 and 6 is marked “B”)
